Assays:
[1] = system: genotype 1b-Con1 subgenomic replicon cell line; test: microbe, parasite or virus in culture; type: cell-based, HCV; settings: Hepatitis C virus, read-out: EC50 1b
[2] = system: genotype 1a-H77 subgenomic replicon cell line; test: microbe, parasite or virus in culture; type: cell-based, HCV; settings: Hepatitis C virus, read-out: EC50 1a

SMILES | EC50 [1] | EC50 [2]
COc1c(-c2ccc3c(CNS(C)(=O)=O)noc3c2)cc(-n2ccc(=O)[nH]c2=O)cc1C(C)(C)C [IB-L0-2.45, N-((6-(3-tert-butyl-5-(2,4-dioxo-3,4-dihydropyrimidin-1(2H)-yl)-2-methoxyphenyl)benzo[d]isoxazol-3-yl)methyl)methanesulfonamide] | 0.1 to 1 µM | > 1 µM
COc1c(-c2ccc3c(c2)/C(=N/NS(C)(=O)=O)CC3)cc(-n2ccc(=O)[nH]c2=O)cc1-c1cccs1 [IB-L0-2.51, (E)-N′-(6-(5-(2,4-dioxo-3,4-dihydropyrimidin-1(2H)-yl)-2-methoxy-3-(thiophen-2-yl)phenyl)-2,3-dihydro-1H-inden-1-ylidene)methanesulfonohydrazide] | < 0.01 µM | 0.01 to 0.1 µM
CCC(C)(C)c1cc(-n2ccc(=O)[nH]c2=O)cc(-c2ccc3cc(NS(C)(=O)=O)ccc3c2)c1OC [IB-L0-2.52, N-(6-(5-(2,4-dioxo-3,4-dihydropyrimidin-1(2H)-yl)-2-methoxy-3-tert-pentylphenyl)naphthalen-2-yl)methanesulfonamide] | < 0.01 µM | 0.01 to 0.1 µM
COc1c(-c2ccsc2)cc(-n2ccc(=O)[nH]c2=O)cc1-c1ccc2cc(NS(C)(=O)=O)ccc2c1 [IB-L0-2.53, N-(6-(5-(2,4-dioxo-3,4-dihydropyrimidin-1(2H)-yl)-2-methoxy-3-(thiophen-3-yl)phenyl)naphthalen-2-yl)methanesulfonamide] | 0.01 to 0.1 µM | 0.01 to 0.1 µM
COc1c(-c2ccc3c(c2)/C(=N/NS(C)(=O)=O)CC3)cc(-n2ccc(=O)[nH]c2=O)cc1-c1ccco1 [IB-L0-2.55, (E)-N′-(6-(5-(2,4-dioxo-3,4-dihydropyrimidin-1(2H)-yl)-3-(furan-2-yl)-2-methoxyphenyl)-2,3-dihydro-1H-inden-1-ylidene)methanesulfonohydrazide] | < 0.01 µM | 0.01 to 0.1 µM
COc1c(-c2ccc3cc(NS(C)(=O)=O)ccc3c2)cc(-n2ccc(=O)[nH]c2=O)cc1C(F)(F)F [IB-L0-2.56, N-(6-(5-(2,4-dioxo-3,4-dihydropyrimidin-1(2H)-yl)-2-methoxy-3-(trifluoromethyl)phenyl)naphthalen-2-yl)methanesulfonamide] | < 0.01 µM | 0.1 to 1 µM
COc1c(I)cc(-n2ccc(=O)[nH]c2=O)cc1-c1ccc2cc(NS(C)(=O)=O)ccc2c1 [IB-L0-2.57, N-(6-(5-(2,4-dioxo-3,4-dihydropyrimidin-1(2H)-yl)-3-iodo-2-methoxyphenyl)naphthalen-2-yl)methanesulfonamide] | 0.01 to 0.1 µM | 0.1 to 1 µM
COc1c(-c2ccc3cc(NS(C)(=O)=O)ccc3c2)cc(-n2ccc(=O)[nH]c2=O)cc1-c1ccco1 [IB-L0-2.59, N-(6-(5-(2,4-dioxo-3,4-dihydropyrimidin-1(2H)-yl)-3-(furan-2-yl)-2-methoxyphenyl)naphthalen-2-yl)methanesulfonamide] | 0.01 to 0.1 µM | 0.1 to 1 µM
COc1c(-c2ccc3cc(NS(C)(=O)=O)ccc3c2)cc(-n2ccc(=O)[nH]c2=O)cc1-c1cccs1 [IB-L0-2.61, N-(6-(5-(2,4-dioxo-3,4-dihydropyrimidin-1(2H)-yl)-2-methoxy-3-(thiophen-2-yl)phenyl)naphthalen-2-yl)methanesulfonamide] | 0.01 to 0.1 µM | 0.1 to 1 µM
COc1c(-c2ccoc2)cc(-n2ccc(=O)[nH]c2=O)cc1-c1ccc2cc(NS(C)(=O)=O)ccc2c1 [IB-L0-2.64, N-(6-(5-(2,4-dioxo-3,4-dihydropyrimidin-1(2H)-yl)-3-(furan-3-yl)-2-methoxyphenyl)naphthalen-2-yl)methanesulfonamide] | < 0.01 µM | 0.1 to 1 µM
COCC(C)(C)c1cc(-n2ccc(=O)[nH]c2=O)cc(-c2ccc3cc(NS(C)(=O)=O)ccc3c2)c1OC [IB-L0-2.66, N-(6-(5-(2,4-dioxo-3,4-dihydropyrimidin-1(2H)-yl)-2-methoxy-3-(1-methoxy-2-methylpropan-2-yl)phenyl)naphthalen-2-yl)methanesulfonamide] | 0.01 to 0.1 µM | 0.1 to 1 µM
COc1c(-c2ccc3cc(NS(C)(=O)=O)ccc3c2)cc(-n2ccc(=O)[nH]c2=O)cc1S(C)(=O)=O [IB-L0-2.68, N-(6-(5-(2,4-dioxo-3,4-dihydropyrimidin-1(2H)-yl)-2-methoxy-3-(methylsulfonyl)phenyl)naphthalen-2-yl)methanesulfonamide] | 0.1 to 1 µM | > 1 µM
COc1c(Br)cc(-n2ccc(=O)[nH]c2=O)cc1-c1ccc2cc(NS(C)(=O)=O)ccc2c1 [IB-L0-2.69, N-(6-(3-bromo-5-(2,4-dioxo-3,4-dihydropyrimidin-1(2H)-yl)-2-methoxyphenyl)naphthalen-2-yl)methanesulfonamide] | 0.01 to 0.1 µM | 0.1 to 1 µM
COC(=O)C(C)(C)c1cc(-n2ccc(=O)[nH]c2=O)cc(-c2ccc3cc(NS(C)(=O)=O)ccc3c2)c1OC [IB-L0-2.70, methyl 2-(5-(2,4-dioxo-3,4-dihydropyrimidin-1(2H)-yl)-2-methoxy-3-(6-(methylsulfonamido)naphthalen-2-yl)phenyl)-2-methylpropanoate] | 0.1 to 1 µM | > 1 µM
COc1c(-c2ccccc2)cc(-n2ccc(=O)[nH]c2=O)cc1-c1ccc2cc(NS(C)(=O)=O)ccc2c1 [IB-L0-2.71, N-(6-(5-(2,4-dioxo-3,4-dihydropyrimidin-1(2H)-yl)-2-methoxy-biphenyl-3-yl)naphthalen-2-yl)methanesulfonamide] | 0.01 to 0.1 µM | 0.1 to 1 µM
COC(=O)c1cc(-n2ccc(=O)[nH]c2=O)cc(-c2ccc3cc(NS(C)(=O)=O)ccc3c2)c1OC [IB-L0-2.72, methyl 5-(2,4-dioxo-3,4-dihydropyrimidin-1(2H)-yl)-2-methoxy-3-(6-(methylsulfonamido)naphthalen-2-yl)benzoate] | 0.1 to 1 µM | > 1 µM
COc1c(-c2ccc3cc(NS(C)(=O)=O)ccc3c2)cc(-n2ccc(=O)[nH]c2=O)cc1-c1ccc(C)s1 [IB-L0-2.73, N-(6-(5-(2,4-dioxo-3,4-dihydropyrimidin-1(2H)-yl)-2-methoxy-3-(5-methylthiophen-2-yl)phenyl)naphthalen-2-yl)methanesulfonamide] | 0.1 to 1 µM | 0.1 to 1 µM
COc1c(-c2cccc(Cl)c2)cc(-n2ccc(=O)[nH]c2=O)cc1-c1ccc2cc(NS(C)(=O)=O)ccc2c1 [IB-L0-2.74, N-(6-(3′-chloro-5-(2,4-dioxo-3,4-dihydropyrimidin-1(2H)-yl)-2-methoxybiphenyl-3-yl)naphthalen-2-yl)methanesulfonamide] | 0.1 to 1 µM | > 1 µM
COc1c(NS(C)(=O)=O)cc(-n2ccc(=O)[nH]c2=O)cc1-c1ccc2cc(NS(C)(=O)=O)ccc2c1 [IB-L0-2.75, N-(5-(2,4-dioxo-3,4-dihydropyrimidin-1(2H)-yl)-2-methoxy-3-(6-(methylsulfonamido)naphthalen-2-yl)phenyl)methanesulfonamide] | > 1 µM | > 1 µM
COc1c(N2Cc3ccc(NS(C)(=O)=O)cc3C2)cc(-n2ccc(=O)[nH]c2=O)cc1C(C)(C)C [IB-L0-2.79, N-(2-(3-tert-butyl-5-(2,4-dioxo-3,4-dihydropyrimidin-1(2H)-yl)-2-methoxyphenyl)isoindolin-5-yl)methanesulfonamide] | 0.1 to 1 µM | 0.1 to 1 µM

— patent publication US8415351B2 (priority 2007, dated 2013)
